According to the NIST ThermoML archive (doi:10.1016/j.jct.2011.08.016):

Experiment: xn = mol fraction of the nth substance listed
Settings: Liquid, Vibrating tube method

CCCCCCCCCC [decane] + CCCCCCCC
Settings	mass density [kg/m3]
363.03 K, 7000 kPa, x2 = 0.0616	682.5
363.03 K, 8000 kPa, x2 = 0.0616	683.6
363.03 K, 9000 kPa, x2 = 0.0616	684.68
363.03 K, 10000 kPa, x2 = 0.0616	685.7
363.03 K, 10990 kPa, x2 = 0.0616	686.75
363.03 K, 12000 kPa, x2 = 0.0616	687.8
363.03 K, 13000 kPa, x2 = 0.0616	688.75
363.03 K, 14000 kPa, x2 = 0.0616	689.77
363.03 K, 15000 kPa, x2 = 0.0616	690.77
363.03 K, 16000 kPa, x2 = 0.0616	691.73
363.03 K, 17000 kPa, x2 = 0.0616	692.68
363.03 K, 18000 kPa, x2 = 0.0616	693.63
363.03 K, 19000 kPa, x2 = 0.0616	694.55
363.03 K, 20000 kPa, x2 = 0.0616	695.46
363.03 K, 21000 kPa, x2 = 0.0616	696.37
363.03 K, 22000 kPa, x2 = 0.0616	697.23
363.03 K, 23000 kPa, x2 = 0.0616	698.12
363.03 K, 24000 kPa, x2 = 0.0616	699
363.03 K, 25000 kPa, x2 = 0.0616	699.81
363.05 K, 1000 kPa, x2 = 0.2801	670.18
363.05 K, 2000 kPa, x2 = 0.2801	671.39
363.05 K, 3000 kPa, x2 = 0.2801	672.48
363.05 K, 4000 kPa, x2 = 0.2801	673.67
363.05 K, 5000 kPa, x2 = 0.2801	674.81
363.05 K, 6000 kPa, x2 = 0.2801	675.97
363.05 K, 7000 kPa, x2 = 0.2801	677.07
363.05 K, 8000 kPa, x2 = 0.2801	678.19
363.05 K, 9000 kPa, x2 = 0.2801	679.28
363.05 K, 10000 kPa, x2 = 0.2801	680.35
363.05 K, 10990 kPa, x2 = 0.2801	681.42
363.05 K, 12000 kPa, x2 = 0.2801	682.49
363.05 K, 13000 kPa, x2 = 0.2801	683.53
363.05 K, 14000 kPa, x2 = 0.2801	684.56
363.05 K, 15000 kPa, x2 = 0.2801	685.57
363.05 K, 16000 kPa, x2 = 0.2801	686.57
363.05 K, 17000 kPa, x2 = 0.2801	687.56
363.05 K, 18000 kPa, x2 = 0.2801	688.51
363.05 K, 19000 kPa, x2 = 0.2801	689.47
363.05 K, 20000 kPa, x2 = 0.2801	690.38
363.05 K, 21000 kPa, x2 = 0.2801	691.33
363.05 K, 22000 kPa, x2 = 0.2801	692.19
363.05 K, 23000 kPa, x2 = 0.2801	693.06
363.05 K, 24000 kPa, x2 = 0.2801	693.94
363.05 K, 25000 kPa, x2 = 0.2801	694.78
363.07 K, 1000 kPa, x2 = 0.7736	654.79
363.07 K, 1000 kPa, x2 = 0.9623	647.67
363.07 K, 2000 kPa, x2 = 0.7736	656.13
363.07 K, 2000 kPa, x2 = 0.9623	649.03
363.07 K, 3000 kPa, x2 = 0.7736	657.39
363.07 K, 3000 kPa, x2 = 0.9623	650.38
363.07 K, 4000 kPa, x2 = 0.7736	658.68
363.07 K, 4000 kPa, x2 = 0.9623	651.7
363.07 K, 5000 kPa, x2 = 0.7736	659.92
363.07 K, 5000 kPa, x2 = 0.9623	652.98
363.07 K, 6000 kPa, x2 = 0.7736	661.18
363.07 K, 6000 kPa, x2 = 0.9623	654.25
363.07 K, 7000 kPa, x2 = 0.7736	662.38
363.07 K, 7000 kPa, x2 = 0.9623	655.52
363.07 K, 8000 kPa, x2 = 0.7736	663.57
363.07 K, 8000 kPa, x2 = 0.9623	656.76
363.07 K, 9000 kPa, x2 = 0.7736	664.75
363.07 K, 9000 kPa, x2 = 0.9623	658
363.07 K, 10000 kPa, x2 = 0.7736	665.92
363.07 K, 10000 kPa, x2 = 0.9623	659.23
363.07 K, 10990 kPa, x2 = 0.7736	667.06
363.07 K, 10990 kPa, x2 = 0.9623	660.42
363.07 K, 12000 kPa, x2 = 0.7736	668.19
363.07 K, 12000 kPa, x2 = 0.9623	661.58
363.07 K, 13000 kPa, x2 = 0.7736	669.32
363.07 K, 13000 kPa, x2 = 0.9623	662.75
363.07 K, 14000 kPa, x2 = 0.7736	670.41
363.07 K, 14000 kPa, x2 = 0.9623	663.87
363.07 K, 15000 kPa, x2 = 0.7736	671.49
363.07 K, 15000 kPa, x2 = 0.9623	664.99
363.07 K, 16000 kPa, x2 = 0.7736	672.56
363.07 K, 16000 kPa, x2 = 0.9623	666.07
363.07 K, 17000 kPa, x2 = 0.7736	673.6
363.07 K, 17000 kPa, x2 = 0.9623	667.17
363.07 K, 18000 kPa, x2 = 0.7736	674.63
363.07 K, 18000 kPa, x2 = 0.9623	668.2
363.07 K, 19000 kPa, x2 = 0.7736	675.61
363.07 K, 19000 kPa, x2 = 0.9623	669.26
363.07 K, 20000 kPa, x2 = 0.7736	676.63
363.07 K, 20000 kPa, x2 = 0.9623	670.29
363.07 K, 21000 kPa, x2 = 0.7736	677.57
363.07 K, 21000 kPa, x2 = 0.9623	671.3
363.07 K, 22000 kPa, x2 = 0.7736	678.47
363.07 K, 22000 kPa, x2 = 0.9623	672.27
363.07 K, 23000 kPa, x2 = 0.7736	679.43
363.07 K, 23000 kPa, x2 = 0.9623	673.14
363.07 K, 24000 kPa, x2 = 0.7736	680.34
363.07 K, 24000 kPa, x2 = 0.9623	674.08
363.07 K, 25000 kPa, x2 = 0.7736	681.28
363.07 K, 25000 kPa, x2 = 0.9623	674.98
